According to patent publication US11986463B2, “Combination therapy for the treatment of gastrointestinal stromal tumor” (Deciphera Pharmaceuticals, LLC, priority 2018, dated 2024):
Where two headings read alike, the source gives them in different places.

Assays:
[1] = system: GIST-T1/D816E imatinib resistant cells; experiment: Colony outgrowth assay, GIST-T1/D816E; format: cell-based
Excerpt: (§1) The outgrown cell colonies were stained with crystal violet and counted.

BCRP = target: T1, BCRP (Homo sapiens, UniProt Q9UNQ0); experiment: BCRP vesicular transport inhibition assay; format: biochemical; details: human; 0.04 μM, lowest concentration tested; read-out: inhibition of the transport of the probe substrate of BCRP
T1 construct: inside-out membrane vesicles
T1 sequence (Q9UNQ0 1-655): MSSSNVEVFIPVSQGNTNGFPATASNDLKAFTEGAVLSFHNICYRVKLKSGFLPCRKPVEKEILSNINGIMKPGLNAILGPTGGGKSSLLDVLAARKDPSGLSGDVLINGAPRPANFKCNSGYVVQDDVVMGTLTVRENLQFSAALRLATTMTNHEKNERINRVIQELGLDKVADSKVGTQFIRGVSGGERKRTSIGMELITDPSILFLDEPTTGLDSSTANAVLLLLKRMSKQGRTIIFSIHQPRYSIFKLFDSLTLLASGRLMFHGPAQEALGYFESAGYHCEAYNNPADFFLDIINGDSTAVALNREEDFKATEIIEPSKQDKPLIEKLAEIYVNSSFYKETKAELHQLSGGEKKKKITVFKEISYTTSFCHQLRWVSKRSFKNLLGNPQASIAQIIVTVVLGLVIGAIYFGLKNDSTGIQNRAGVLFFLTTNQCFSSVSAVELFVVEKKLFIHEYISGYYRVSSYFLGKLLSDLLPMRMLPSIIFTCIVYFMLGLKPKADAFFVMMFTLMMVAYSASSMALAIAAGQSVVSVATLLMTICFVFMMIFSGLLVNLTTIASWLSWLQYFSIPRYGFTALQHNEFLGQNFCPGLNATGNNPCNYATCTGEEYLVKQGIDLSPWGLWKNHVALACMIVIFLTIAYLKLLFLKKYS
Protocol: (§2) The IC50 value was estimated to be approximately 0.04 μM.

[2] = target: T2, human efflux transporter BCRP (Homo sapiens, UniProt Q9UNQ0); experiment: BCRP vesicular transport inhibition assay; format: biochemical
T2 construct: inside-out membrane vesicles
T2 sequence (Q9UNQ0 1-655): T1 sequence (Q9UNQ0 1-655)
Protocol: as §2

[3] = system: GIST-T1/T670I imatinib resistant cells; experiment: Colony outgrowth assay, GIST-T1/T670I; format: cell-based
Excerpt: as §1

GIST T1 xenograft = GIST T1 xenograft model; format: in vivo, mice; details: for mice with partial tumor regression during the dosing period / mice with complete tumor regression during the dosing period: days 10-27; for mice remaining in partial tumor regression at the end of study: end of study day 66
Protocol: The GIST T1 xenograft model was performed in compliance with all the laws, regulations and guidelines of the National Institutes of Health (NIH) and with the approval of the Animal Care and Use Committee of MI Bioresearch (Ann Arbor, MI), an AAALAC accredited facility. All mice had food and water ad libitum. […] Female Envigo nude mice (HsdCrl:Athymic Nude-NU-Foxn1nu; 6-7 weeks old) were inoculated subcutaneously just below the right high axilla with five million cells in Dulbecco's Phosphate Buffered Saline mixed with an equal volume of Matrigel, using a 27 gauge needle and syringe. When tumor burdens reached 117 mm^3 on average on day 10, mice were randomly assigned into groups such that the mean tumor burden for all groups was within 10% of the overall mean tumor burden for the study population. […] On Day 27, all animals were placed on control diet to monitor tumor regrowth. Tumor volume and body weight were measured thrice weekly. Tumor burden (mg) was estimated from caliper measurements by the formula: tumor burden (mg=mm^3)=(length×width^2)/2.

[4] = system: GIST-T1 (57 bp exon 11 deletion) imatinib sensitive cells; experiment: Colony outgrowth assay, GIST-T1; format: cell-based
Excerpt: as §1

[5] = system: Ba/F3 cells transformed with oncogenic KIT V560D mutant; details: 100 nM, 250 nM or 500 nM imatinib single agent
Protocol: A saturation mutagenesis study was performed in Ba/F3 cells transformed with oncogenic KIT V560D mutant. DNA nicking was induced by N-ethyl-N-nitrosourea (ENU) for 18 hours to generate additional mutations in the KIT gene or other genes in a random fashion. Assays were conducted in 6 well plates with 100 cells seeded per well. […] These cells were subjected to PCR and sequencing of the KIT gene to determine the presence of a resistant secondary mutation induced by the ENU treatment.

[6] = low dose Compound A approximately 25 mg/kg/day in diet, trametinib 0.5 mg/kg BID where combined

CCn1c(=O)c(-c2cc(NC(=O)Nc3ccccc3)c(F)cc2Br)cc2cnc(NC)cc21 [Compound A, 1-[4-bromo-5-[1-ethyl-7-(methylamino)-2-oxo-1,2-dihydro-1,6-naphthyridin-3-yl]-2-fluorophenyl]-3-phenylurea]
GIST T1/D816E colony outgrowth ([1]; Compound A 50 nM, 100 nM or 250 nM single agent (FIG. 14B)): 81-93 % of vehicle control | inhibition at 0.04 µM (BCRP): 44% | IC50 ([2]; 7 concentrations, vesicular transport inhibition, read-out: IC50, BCRP (estimated)): ~40 nM | IC50 ([2]; read-out: IC50, BCRP efflux transporter): 40 nM | GIST T1/T670I colony outgrowth ([3]; Compound A 100 nM or 250 nM single agents, dose dependent (FIG. 10C)): 78-89 % of vehicle control | mice with partial tumor regression during the dosing period (GIST T1 xenograft; high dose Compound A approximately 100 mg/kg/day in diet): 4/10 | mice with complete tumor regression during the dosing period (GIST T1 xenograft; high dose Compound A approximately 100 mg/kg/day in diet, trametinib 0.5 mg/kg BID where combined): 6/10 | mice remaining in partial tumor regression at the end of study (GIST T1 xenograft; high dose Compound A approximately 100 mg/kg/day, trametinib 0.5 mg/kg BID where combined): 1/10 | mice with complete tumor regression during the dosing period (GIST T1 xenograft; [6]): 2/10 | mice with partial tumor regression during the dosing period (GIST T1 xenograft; [6]): 6/10 | mice remaining in partial tumor regression at the end of study (GIST T1 xenograft; low dose Compound A approximately 25 mg/kg/day, trametinib 0.5 mg/kg BID where combined): 2/10 | GIST T1 colony outgrowth ([4]; Compound A single agents (FIG. 14A)): 37-41 % of vehicle control

CCn1c(=O)c(-c2cc(NC(=O)Nc3ccccc3)c(F)cc2Br)cc2cnc(N)cc21 [Compound B, 1-(5-(7-amino-1-ethyl-2-oxo-1,2-dihydro-1,6-naphthyridin-3-yl)-4-bromo-2-fluorophenyl)-3-phenylurea]
GIST T1/D816E colony outgrowth ([1]; Compound B 50 nM, 100 nM or 250 nM single agent (FIG. 9B)): 59-84 % of vehicle control | GIST T1/D816E colony outgrowth ([1]; Compound B 50 nM, 100 nM or 250 nM single agent (FIG. 15)): 52-95 % of vehicle control | GIST T1/D816E colony outgrowth ([1]; Compound B 100 nM or 250 nM single agent (FIG. 13B)): 58-84 % of vehicle control | GIST T1/D816E colony outgrowth ([1]; Compound B 100 nM or 250 nM single agents (FIG. 11B)): 74-83 % of vehicle control | GIST T1/T670I colony outgrowth ([3]; Compound B 50 nM, 100 nM, 250 nM single agents (FIG. 9C)): 75-78 % of vehicle control | GIST T1/T670I colony outgrowth ([3]; Compound B 100 nM or 250 nM single (FIG. 13C)): 75-78 % of vehicle control | GIST T1/T670I colony outgrowth ([3]; Compound B 100 nM or 250 nM single agent (FIG. 11C)): 72-78 % of vehicle control | reduction of GIST T1 colony outgrowth compared to vehicle control ([4]; Compound B single agent (FIG. 9A)): 42-54% | GIST T1 colony outgrowth ([4]; Compound B single agent (FIG. 13A)): 42-54 % of vehicle control | GIST T1 colony outgrowth ([4]; each concentration of Compound B as a single agent (FIG. 11A)): 27-31 % of vehicle control

Cc1ccc(NC(=O)c2ccc(CN3CCN(C)CC3)cc2)cc1Nc1nccc(-c2cccnc2)n1 [imatinib, reference compound]
reduction of GIST-T1/T670I colonies ([3]; imatinib 500 nM single agent (FIG. 10C)): does not show any reduction of colonies | outgrowth of resistant secondary KIT mutations [5]: T670I, K807E, and/or D816V imatinib-resistant secondary KIT mutants were identified
